The conditions of data set [1]: Crystal; DTA.
The nature of data set [2]: Molar enthalpy of transition or fusion. As to conditions: Crystal; DSC.

This is an account of results in the NIST ThermoML archive (doi:10.1016/j.jct.2016.10.020).

Numbers after ± are expanded uncertainties.

Turning to `COc1cc(Cl)nc(N)n1` [2-amino-4-chloro-6-methoxypyrimidine], in data set [1], the Normal melting temperature turned out to be 173.80 ± 1.1 °C. The “Molar enthalpy of transition or fusion” value in data set [2] came to 5.93 ± 0.239 kcal/mol.
